Results from article PMC6753678, “Fueling Open Innovation for Malaria Transmission-Blocking Drugs: Hundreds of Molecules Targeting Early Parasite Mosquito Stages” (Frontiers in Microbiology, 2019).
pIC50: −log10 of the molar value. Like-named read-outs stand apart in the source and are kept apart here.

Columns and labels:
[1] = test system: 3D7-strain P. falciparum asexual parasites; experiment: P. falciparum asexual growth inhibition assay (Pf GIA); format: cell-based, Plasmodium falciparum; conditions: dose response confirmation; read-out: Pf asexual growth inhibition assays IC50
Summary of the method: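 Steps: seed parasites (0.25% parasitemia, 2% hematocrit) onto compound dilutions; incubate 72 h at 37°C, 5% O2/5% CO2; freeze at −70°C and thaw; add LDH reaction mix, read A650 after 10 min. Percent growth inhibition derived from chloroquine and DMSO controls, averaged over three biological replicates.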

[2] = test system: P. berghei ookinete development; conditions: for % inhibition, Replicate A / % inhibition, Replicate B: primary screen at 1 μM
HepG2 cells = experiment: HepG2 cytotoxicity assay; conditions: for Pb ODA (this manuscript) HepG2 cytoxicity: HepG2 cytotoxicity listed with the Pb ODA data set (this manuscript); for pIC50: read-out: HepG2 cytotoxicity assay IC50, dose response confirmation
Summary of the method: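 HepG2 cells, 2,500 per well in MEM with 10% FBS and 1% NEAA, exposed to compounds for 48 h at 37°C, 5% CO2. Viability read by fluorescence; percent inhibition relative to 50 μM doxorubicin and DMSO controls.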

[3] = read-out: Pb ODA (this manuscript) IC50, P. berghei ookinete development assay, this manuscript
[4] = read-out: Pb Ookinete development assay IC50, dose response confirmation
[5] = read-out: Pb ODA IC50, this manuscript
[6] = HepG2 values of the three screens unified
[7] = unified HepG2 value across the three screens

Structure (SMILES) | pIC50 [1] | Is compound selective in assay? Pb ODA active? [2] | % inhibition, Replicate A [2] [%] | % inhibition, Replicate B [2] [%] | pIC50 [2, 3] | pIC50 [2, 4] | Pb ODA (this manuscript) HepG2 cytoxicity (HepG2 cells) [µM] | pIC50 (HepG2 cells) | Is compound selective in assay? Pb ODA active? ([2]; 1: YES, 0: NO) | pIC50 [2, 5] | HepG2 cytoxicity (Pb ODA, this manuscript) (HepG2 cells) [µM] | Unified cytotox (HepG2 cells; [6]) [µM] | Unified cytotox (HepG2 cells; [7]) [µM]
COc1ccc2nc3cc(Cl)ccc3c(NCc3ccccc3)c2c1.Cl [TCMDC-137663] | 6.37 | 1 (key: 1: YES; 0: NO) | 39.90 | 59.60 | 5.79 | 5.79 | 41.69 | 4.38 |  |  |  |  | 
CCCc1cc2c3c(N)nc(N)nc3ccc2n1C(CC)CC [TCMDC-137312] | > 9.70 |  | 47.03 | 71.34 |  | 6.33 |  | 8.77 | 0 (0: NO) | 6.34 | 0.0017 | 0.0017 | 
Cc1[nH]c(C)c(-c2ccc(/C=C/c3ccccn3)cc2)c(=O)c1Cl [TCMDC-135787] | 5.90 |  | 50.60 | 51.03 |  | 5.98 |  | 4.00 | 1 (1: YES) |  |  | 100.00 | 
COc1ccc(NS(=O)(=O)c2cc(NC(=O)Cn3ccccc3=O)ccc2N2CCCCC2)cc1 [TCMDC-124874] | 6.31 |  | 66.12 | 73.52 |  | 5.89 |  | 4.00 | 1 (1: YES) | 5.90 |  |  | 100.00
Nc1c2ccccc2nc2ccc(Cl)cc12 [TCMDC-132029] | 6.49 |  | 75.70 | 81.80 |  | 5.84 |  | 4.87 | 0 (0: NO) | 5.84 |  |  | 13.49
CCCCCCCCc1c(C)[nH]c(C)c(C#N)c1=O [TCMDC-137431] | 6.10 |  | 93.99 | 59.83 |  | 6.34 |  | 4.46 | 1 (1: YES) |  |  |  | 34.67
O=C(c1cc(-c2cccs2)[nH]n1)N1CCN(S(=O)(=O)c2ccc(Cl)cc2)CC1 [TCMDC-124702] | 7.57 | 0 (key: 1: YES; 0: NO) | 58.15 | 68.92 | 5.36 | 5.36 | 42.17 | 4.37 |  |  |  |  | 
Br.CC1(C)NC(N)=NC(=N)N1OCCCOc1ccccc1Cl [TCMDC-131739] | > 9.70 | 0 (key: 1: YES; 0: NO) | 73.15 | 48.60 | 5.50 | 5.50 | 0.001 | 9.00 |  |  |  |  | 
Cc1[nH]c(C)c(-c2ccc(OCc3cc(F)cc(F)c3)nc2)c(=O)c1Cl [TCMDC-135676] | 7.44 |  | 78.17 | 102.44 |  | 5.68 |  | 5.11 | 0 (0: NO) | 5.68 | 7.85 | 7.85 | 
COc1ccc(C#Cc2ccc(-c3c(C)[nH]c(C)c(Cl)c3=O)cc2)cc1 [TCMDC-135655] | 7.14 |  | 78.44 | 70.65 |  | 5.94 |  | 4.00 | 1 (1: YES) | 5.94 |  | 100.00 | 
COc1ccc2nccc([C@@H](O)CN3CCC(NC(=O)c4cc5c(F)cc(F)cc5[nH]4)CC3)c2c1.CS(=O)(=O)O [TCMDC-140781] | 6.52 |  | 60.81 | 64.63 |  | 6.00 |  | 4.95 | 1 (1: YES) | 6.00 | 11.22 | 11.22 | 
COc1ccc2ncc(C#N)c(CCN3CCC(NCc4ccc5c(n4)NC(=O)CS5)CC3)c2n1.Cl [TCMDC-135188] | 5.63 |  | 67.48 | 73.91 |  | 6.11 |  | 4.26 | 1 (1: YES) | 6.11 | 54.95 | 54.95 | 
CN1CCN(c2ccc(Nc3ncc(C#N)c(Nc4ccccc4C(N)=O)n3)cc2)CC1.Cl [TCMDC-134116] | 7.55 | 1 (key: 1: YES; 0: NO) | 134.36 | 120.59 | 7.50 | 7.49 | 2.43 | 5.61 |  |  |  |  | 
Cc1[nH]c(C)c(-c2ccc(Oc3ccc(F)cc3)cc2)c(=O)c1Br [TCMDC-137402] | 7.52 |  | 94.48 | 95.56 |  | 7.24 |  | 5.42 | 1 (1: YES) | 7.25 | 3.80 | 3.80 | 
Cc1[nH]c(C)c(-c2ccc(CCc3ccc(N)cc3)cc2)c(=O)c1Cl [TCMDC-135678] | 6.55 |  | 46.90 | 71.02 |  | 5.96 |  | 4.00 | 1 (1: YES) | 5.96 |  | 100.00 | 
Cc1[nH]c(C)c(-c2ccc(C(F)(F)F)cc2)c(=O)c1Br [TCMDC-137429] | 6.43 | 1 (key: 1: YES; 0: NO) | 133.13 | 107.96 | 6.19 | 6.19 | 100.00 | 4.00 |  |  |  |  | 
CCN(C)C(=O)n1ncc2c3c(N)nc(N)nc3ccc21 [TCMDC-137828] | 7.07 | 0 (key: 1: YES; 0: NO) | 30.59 | 54.76 | 5.59 | 5.59 | 0.22 | 6.66 |  |  |  |  | 
CCc1c(C)nc(-n2nc(C)cc2NC(=O)c2ccc(OC)cc2OC)[nH]c1=O [TCMDC-124937] | 8.00 | 0 (key: 1: YES; 0: NO) | 65.69 | 36.83 | 5.82 | 5.82 | 10.00 | 5.00 |  |  |  |  | 
CC(ON1C(N)=NC(N)=NC1(C)C)c1ccccc1 (centres unmarked) [TCMDC-131596] | 7.85 |  | 78.80 | 47.07 |  | 5.28 |  | 7.43 | 0 (0: NO) |  | 0.0372 | 0.0372 | 
